Common to all, as to type: cell-based, Acinetobacter baumannii
In one assay the test system is A. baumannii 1403. Nature of the assay: MIC assay, strain 1403. The method, then:
(§1) MIC and MBC assays were performed in this study as documented by us previously.^17,23,24,25 The A. baumannii strains used are detailed in Table 7.

In assay [1] the test system is A. baumannii 1646. As to the kind of experiment: MIC assay, strain 1646. The method, then:
as §1

A further assay relates to A. baumannii 1649. As to the kind of experiment: MIC assay, strain 1649. The method, then:
as §1

In the next assay the test system is A. baumannii 1650. As to the kind of experiment: MIC assay, strain 1650. The method, then: as §1
The next assay deals with A. baumannii 1651. Nature of the assay: MIC assay, strain 1651. The protocol: as §1
The next assay has as its system A. baumannii 1652. Nature of the assay: MIC assay, strain 1652. The method, then: as §1
A further assay relates to A. baumannii. As to the kind of experiment: MIC assay, A. baumannii isolates (strain not given). As to conditions: Acinetobacter baumannii; strain not given; read-out: MIC. The protocol:
as §1

The subject of assay [2] is A. baumannii 1646. As to the kind of experiment: minimal bactericidal concentration (MBC) assay, strain 1646. As to conditions: isolate 1646.
Text: Lead quinazolines 4, 5, 26, 29, 27, and 30 were selected to be further evaluated for antimicrobial effects. The first assay utilized was a minimal bactericidal concentration (MBC) assay, to assess whether leads compounds were bacteriostatic or bactericidal. The six lead agents were screened to identify their MBC90 towards each of the six A. baumannii isolates used in the SAR studies (Table 8), however for simplicity only the representative data for isolate 1646 is detailed below (Table 6). […] Further to this, we were able to obtain complete eradication of bacterial growth for these two compounds at 1 μM for 24 and 5 μM for 25.
as §1

The mark [3] stands for this setting: Acinetobacter baumannii, strain 1403, Tables 1, 3, 4, 5 and footnotes, read-out: 1403 MIC.
Setting [4] is: Acinetobacter baumannii, strain 1646, Tables 1, 3, 4, 5 and footnotes, read-out: 1646 MIC.
Setting [5] is: Acinetobacter baumannii, strain 1649, Tables 1, 3, 4, 5 and footnotes, read-out: 1649 MIC.
Setting [6] is: Acinetobacter baumannii, strain 1650, Tables 1, 3, 4, 5 and footnotes, read-out: 1650 MIC.
Where [7] appears, read: Acinetobacter baumannii, strain 1651, Tables 1, 3, 4, 5 and footnotes, read-out: 1651 MIC.
The mark [8] stands for this setting: Acinetobacter baumannii, strain 1652, Tables 1, 3, 4, 5 and footnotes, read-out: 1652 MIC.

≈ marks a conversion by molar mass, not a printed value. Where two headings read alike, the source gives them in different places.

What is called MIC is the smallest concentration in the dilution series that meets the test's criterion for growth inhibition. As for `CNc1nc(NCCc2ccccc2)nc2ccc(Br)cc12` [Compound 19, 6-Bromo-N^4-methyl-N^2-phenethylquinazoline-2,4-diamine], the minimal inhibitory concentration (MIC) in the assay with A. baumannii 1403 (setting [3]) is > 50 µM; in the assay on A. baumannii 1646 [1] (setting [4]), 2 µM (≈ 0.715 µg/mL); in the assay on A. baumannii 1649 (setting [5]) it was > 50 µM; with A. baumannii 1650 (setting [6]), > 50 µM; in the assay on A. baumannii 1651 (setting [7]), 10 µM (≈ 3.57 µg/mL); in the assay with A. baumannii 1652 (setting [8]) it was > 50 µM. For the same compound, in the assay on A. baumannii, the MIC was 2 to 4 µM (≈ 0.715 to 1.43 µg/mL).

On to `CNc1nc(NCc2ccccc2)c2ccc(Br)cc2n1` [Compound 14, N^4-Benzyl-7-bromo-N^2-methylquinazoline-2,4-diamine], for which the MIC with A. baumannii 1403 (setting [3]) was > 50 µM; in the assay on A. baumannii 1646 [1] (setting [4]) it was 4 µM (≈ 1.37 µg/mL); in the assay with A. baumannii 1649 (setting [5]), > 50 µM; in the assay on A. baumannii 1650 (setting [6]) it was > 50 µM; in the assay with A. baumannii 1651 (setting [7]), > 50 µM; with A. baumannii 1652 (setting [8]), > 50 µM.

As for `C=C(C)c1ccc2nc(NCc3ccccc3)nc(NC)c2c1` [Compound 24, N^2-Benzyl-N^4-methyl-6-(prop-1-en-2-yl)quinazoline-2,4-diamine], the MIC in the assay on A. baumannii 1403 (setting [3]) is > 50 µM; with A. baumannii 1646 [1] (setting [4]), 2 µM (≈ 0.609 µg/mL); in the assay with A. baumannii 1649 (setting [5]) it was 25 µM (≈ 7.61 µg/mL); in the assay with A. baumannii 1650 (setting [6]) it was > 50 µM; in the assay on A. baumannii 1651 (setting [7]), 10 µM (≈ 3.04 µg/mL); in the assay on A. baumannii 1652 (setting [8]), > 50 µM. The “concentration giving complete eradication of bacterial growth” value in the assay with A. baumannii 1646 [2] worked out at 1 µM.

Regarding `CNc1nc(NCc2ccccc2)nc2ccc(C3=CCCC3)cc12` [Compound 28, N^2-Benzyl-6-(cyclopent-1-en-1-yl)-N^4-methylquinazoline-2,4-diamine], the minimal inhibitory concentration (MIC) in the assay on A. baumannii 1403 (setting [3]) is > 50 µM; with A. baumannii 1646 [1] (setting [4]), 2 µM (≈ 0.661 µg/mL); with A. baumannii 1649 (setting [5]), 50 µM (≈ 16.5 µg/mL); with A. baumannii 1650 (setting [6]), > 50 µM; with A. baumannii 1651 (setting [7]), 30 µM (≈ 9.91 µg/mL); with A. baumannii 1652 (setting [8]), > 50 µM.

Consider `CNc1nc(NCc2ccccc2)nc2ccc(-c3ccco3)cc12` [Compound 32, N^2-Benzyl-6-(furan-2-yl)-N^4-methylquinazoline-2,4-diamine], for which the MIC was 40 µM (≈ 13.2 µg/mL) in the assay on A. baumannii 1403 (Acinetobacter baumannii, 1403, read-out: 1403 MIC); 25 µM (≈ 8.26 µg/mL) with A. baumannii 1646 [1] (Acinetobacter baumannii, 1646, read-out: 1646 MIC); > 50 µM with A. baumannii 1649 (Acinetobacter baumannii, 1649, read-out: 1649 MIC); > 50 µM in the assay with A. baumannii 1650 (Acinetobacter baumannii, 1650, read-out: 1650 MIC); 15 µM (≈ 4.96 µg/mL) in the assay with A. baumannii 1651 (Acinetobacter baumannii, 1651, read-out: 1651 MIC); > 50 µM in the assay on A. baumannii 1652 (Acinetobacter baumannii, 1652, read-out: 1652 MIC).

In the case of `CNc1nc(NCc2ccccc2)nc2cc(Cl)ccc12` [Compound 2, N^2-Benzyl-7-chloro-N^4-methylquinazoline-2,4-diamine], the MIC in the assay with A. baumannii 1403 (setting [3]) is > 50 µM; in the assay on A. baumannii 1646 [1] (setting [4]), 6 µM (≈ 1.79 µg/mL); in the assay with A. baumannii 1649 (setting [5]), 30 µM (≈ 8.96 µg/mL); in the assay on A. baumannii 1650 (setting [6]) it was > 50 µM; with A. baumannii 1651 (setting [7]) it was 10 µM (≈ 2.99 µg/mL); in the assay with A. baumannii 1652 (setting [8]), 50 µM (≈ 14.9 µg/mL).

As for `CNc1nc(NCc2ccccc2)nc2ccc(OC)cc12` [Compound 3, N^2-Benzyl-6-methoxy-N^4-methylquinazoline-2,4-diamine], the MIC in the assay with A. baumannii 1403 (setting [3]) is > 50 µM; in the assay on A. baumannii 1646 [1] (setting [4]), 2 µM (≈ 0.589 µg/mL); with A. baumannii 1649 (setting [5]), 25 µM (≈ 7.36 µg/mL); with A. baumannii 1650 (setting [6]), 50 µM (≈ 14.7 µg/mL); in the assay with A. baumannii 1651 (setting [7]) it was 10 µM (≈ 2.94 µg/mL); in the assay with A. baumannii 1652 (setting [8]) it was 30 µM (≈ 8.83 µg/mL).

Consider `CNc1nc(NCc2ccccc2)nc2cc(C)ccc12` [Compound 7, N^2-Benzyl-N^4,7-dimethylquinazoline-2,4-diamine], for which the MIC was determined as 50 µM (≈ 13.9 µg/mL) in the assay on A. baumannii 1403 (Acinetobacter baumannii, strain 1403, Table 2, read-out: 1403 MIC); 12 µM (≈ 3.34 µg/mL) in the assay with A. baumannii 1646 [1] (Acinetobacter baumannii, strain 1646, Table 2, read-out: 1646 MIC); 25 µM (≈ 6.96 µg/mL) in the assay on A. baumannii 1649 (Acinetobacter baumannii, strain 1649, Table 2, read-out: 1649 MIC); 50 µM (≈ 13.9 µg/mL) in the assay with A. baumannii 1650 (Acinetobacter baumannii, strain 1650, Table 2, read-out: 1650 MIC); 12 µM (≈ 3.34 µg/mL) in the assay on A. baumannii 1651 (Acinetobacter baumannii, strain 1651, Table 2, read-out: 1651 MIC); 35 µM (≈ 9.74 µg/mL) in the assay with A. baumannii 1652 (Acinetobacter baumannii, strain 1652, Table 2, read-out: 1652 MIC).

`CNc1nc(NCc2ccccc2)nc2ccc(Cl)cc12` [Compound 1, N^2-Benzyl-6-chloro-N^4-methylquinazoline-2,4-diamine]: the MIC with A. baumannii 1403 (setting [3]) came to 50 µM (≈ 14.9 µg/mL); with A. baumannii 1646 [1] (setting [4]), 2 µM (≈ 0.598 µg/mL); with A. baumannii 1649 (setting [5]), 25 µM (≈ 7.47 µg/mL); with A. baumannii 1650 (setting [6]), 15 µM (≈ 4.48 µg/mL); in the assay on A. baumannii 1651 (setting [7]), 6 µM (≈ 1.79 µg/mL); in the assay with A. baumannii 1652 (setting [8]) it was 20 µM (≈ 5.98 µg/mL).

(Values after patent publication US10323007B1, “N2N N4-disubstituted quinazoline-2,4-diamines and uses thereof” (University of South Florida, priority 2016, dated 2019).)
